Measurements published in US12319655B2, “RAF kinase inhibitors and methods of use thereof” (Deciphera Pharmaceuticals, LLC, priority 2021, dated 2025).

Tests used:
H2405 cells = experiment: H2405 Cell Proliferation Assay (1); assay type: cell-based; conditions: Homo sapiens, NCI-H2405
In short: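 Viability was read by resazurin reduction (ex 540 nm, em 600 nm; 5-6 h with 40 μL of 440 μM stock) after 67-72 h compound exposure at 37 °C.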

Miapaca-2 cells = experiment: MiaPaca-2 Cell Proliferation Assay (1); assay type: cell-based; conditions: Homo sapiens, MIA PaCa-2, single agent, read-out: MiaPaca2 (1) IC50
In short: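 Resazurin was added after compound exposure and incubated 5-6 h, then fluorescence read at 540 nm excitation and 600 nm emission to give IC50.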

[1] = molecular target: A-Raf kinase (SEQ. ID No: 1) (Homo sapiens (Human), UniProt P10398, Y301D/Y302D); experiment: Biochemical Assay for A-Raf (1); conditions: Table J, assay version (1); read-out: ARAF (1) IC50
A-Raf kinase (SEQ. ID No: 1), sequence (P10398 other isoform, or with tags, fused parts or gaps Y301D (already in the parent)/Y302D (already in the parent)): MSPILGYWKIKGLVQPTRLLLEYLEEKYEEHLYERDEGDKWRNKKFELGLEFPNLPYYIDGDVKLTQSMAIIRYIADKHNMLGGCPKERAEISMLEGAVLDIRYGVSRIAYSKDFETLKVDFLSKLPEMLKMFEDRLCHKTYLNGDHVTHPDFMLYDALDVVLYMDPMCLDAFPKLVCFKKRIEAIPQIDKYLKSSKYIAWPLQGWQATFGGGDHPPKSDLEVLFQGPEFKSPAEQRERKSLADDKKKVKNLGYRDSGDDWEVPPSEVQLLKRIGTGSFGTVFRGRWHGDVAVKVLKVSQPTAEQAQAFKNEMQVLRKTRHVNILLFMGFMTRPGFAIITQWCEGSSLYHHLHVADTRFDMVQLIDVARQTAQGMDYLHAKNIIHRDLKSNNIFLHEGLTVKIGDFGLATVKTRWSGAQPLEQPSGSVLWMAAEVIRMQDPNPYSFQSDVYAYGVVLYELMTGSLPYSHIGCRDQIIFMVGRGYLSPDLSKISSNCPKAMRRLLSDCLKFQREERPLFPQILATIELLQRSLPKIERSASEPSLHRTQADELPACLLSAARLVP
In short: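 IC50 values were derived by four-parameter sigmoidal fitting of percent inhibition, calculated from reaction rates over the 4–5 h window. Absorbance at 340 nm was tracked for 6 h at 30 °C via coupled PK/LDH NADH depletion. Conditions: 1 mM ATP, 30.1 nM MEK substrate, 5.55 nM A-Raf (Y301D/Y302D), Tris pH 7.5, 1% DMSO.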

WM3928 cells = experiment: WM3928 Cell Proliferation Assay (1); assay type: cell-based
In short: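 IC50 was derived from resazurin fluorescence (ex 540, em 600 nm) after a 6–7 h dye incubation. Before that, cells had 67–72 h of compound exposure at 37 °C, 5% CO2.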

Row | Compound | IC50 (H2405 cells) | IC50 (Miapaca-2 cells) | IC50 [1] | IC50 (WM3928 cells)
1 | Cc1ncc(NC(=O)c2cn(C(C)C)nn2)cc1-c1ccnc(-c2ccnc(NC(=O)C3CC3)c2)n1 [Example 281] | 100 to 500 nM | 1000 to 10000 nM | 1000 to 10000 nM | 1000 to 10000 nM
2 | COC(=O)Nc1cc(-c2cccc(-c3cc(NC(=O)c4ccnc(C(C)(C)C#N)c4)cnc3C)c2)ccn1 [Example 282] | 500 to 1000 nM | 1000 to 10000 nM | 1000 to 10000 nM | 100 to 500 nM
3 | Cc1ncc(NC(=O)c2cnn(C(C)(C)C)c2)cc1-c1ccnc(-c2ccnc(NC(=O)C3CC3)c2)n1 [Example 283] | 100 to 500 nM | 1000 to 10000 nM | 1000 to 10000 nM | 100 to 500 nM
4 | Cc1ccc(NC(=O)c2cnnc(C3CC3)c2)cc1-c1cccc(-c2cc(NC(=O)C3CC3)ncn2)c1 [Example 284] | 500 to 1000 nM | 1000 to 10000 nM | 500 to 1000 nM | ≤ 100 nM
5 | Cc1nc(-c2ccnc(NC(=O)C3CC3)c2)cc(-c2cc(NC(=O)c3ccnc(C4(C#N)CC4)c3)cnc2C)n1 [Example 286] | 100 to 500 nM | 1000 to 10000 nM | 1000 to 10000 nM | 100 to 500 nM
6 | Cc1nc(-c2ccnc(NC(=O)C3CC3)c2)cc(-c2cc(NC(=O)c3ccnc(C4CC4)c3)cnc2C)n1 [Example 287] | 500 to 1000 nM | 1000 to 10000 nM | 1000 to 10000 nM | 100 to 500 nM
7 | COC(=O)Nc1cc(-c2cccc(-c3cc(NC(=O)c4ccnc(C5CC5)c4)cnc3C)c2)ccn1 [Example 288] | 1000 to 10000 nM | 1000 to 10000 nM | 1000 to 10000 nM | 1000 to 10000 nM
8 | COC(=O)Nc1nccc(-c2cccc(-c3cc(NC(=O)c4ccnc(C(C)(C)C#N)c4)cnc3C)c2)n1 [Example 290] | 1000 to 10000 nM | 1000 to 10000 nM | 1000 to 10000 nM | 500 to 1000 nM
9 | Cc1ncc(NC(=O)c2ccnc(C3CC3)c2)cc1-c1cccc(-c2cc(NC(=O)C3CC3)ncn2)c1 [Example 291] | 100 to 500 nM | 1000 to 10000 nM | 1000 to 10000 nM | ≤ 100 nM
10 | Cc1ncc(NC(=O)c2ccnc(C3CC3)c2)cc1-c1nccc(-c2ccnc(NC(=O)C3CC3)c2)n1 [Example 295] | 100 to 500 nM | 1000 to 10000 nM | 1000 to 10000 nM | 100 to 500 nM
11 | Cc1cc(F)c(NC(=O)c2ccnc(C(C)(C)C#N)c2)cc1-c1cc(-c2ccnc(NC(=O)C3CC3)c2)cnn1 [Example 298] | 100 to 500 nM | 1000 to 10000 nM | 1000 to 10000 nM | 100 to 500 nM
12 | COC(=O)Nc1cc(-c2cnnc(-c3cc(NC(=O)c4ccnc(C(C)(C)C#N)c4)c(F)cc3C)c2)ccn1 [Example 299] | 100 to 500 nM | 1000 to 10000 nM | 1000 to 10000 nM | 500 to 1000 nM
13 | Cc1ncc(NC(=O)c2ccnc(C(C)(C)C#N)c2)cc1-c1cccc(-c2ccnc(C(N)=O)c2)c1 [Example 301] | 100 to 500 nM | 1000 to 10000 nM | 1000 to 10000 nM | 100 to 500 nM
14 | COC(=O)Nc1cc(-c2nccc(-c3cc(NC(=O)c4ccnc(C(C)(C)F)c4)c(F)cc3C)n2)ccn1 [Example 304] | 100 to 500 nM | 1000 to 10000 nM | 1000 to 10000 nM | ≤ 100 nM
15 | COC(=O)Nc1cc(-c2cnnc(-c3cc(NC(=O)c4ccnc(C(C)(C)C#N)c4)ccc3C)c2)ccn1 [Example 305] | 100 to 500 nM | 1000 to 10000 nM | 1000 to 10000 nM | 100 to 500 nM
16 | COC(=O)Nc1cc(-c2cc(-c3cc(NC(=O)c4ccnc(C(F)(F)F)c4)cnc3C)ccn2)ccn1 [Example 312] | 100 to 500 nM | 1000 to 10000 nM | 1000 to 10000 nM | 1000 to 10000 nM
17 | Cc1ncc(NC(=O)C2CCOC(C)(C)C2)cc1-c1cccc(-c2cc(NC(=O)C3CC3)ncn2)c1 (centres unmarked) [Example 348] | 1000 to 10000 nM | 1000 to 10000 nM | 1000 to 10000 nM | 1000 to 10000 nM
18 | CNC(=O)c1cc(-c2cnnc(-c3cc(NC(=O)c4ccnc(C(F)(F)F)c4)ccc3C)c2)ccn1 [Example 364] | 500 to 1000 nM | – | 1000 to 10000 nM | 1000 to 10000 nM
19 | Cc1ccc(NC(=O)C2CCOC(C(C)C)C2)cc1-c1cc(-c2ccnc(NC(=O)C3CC3)c2)cnn1 (centres unmarked) [Example 370] | 500 to 1000 nM | – | 1000 to 10000 nM | 1000 to 10000 nM
20 | CNC(=O)c1cc(-c2cc(-c3cc(NC(=O)c4ccnc(C(C)(C)F)c4)ccc3C)cnc2C)ccn1 [Example 371] | 100 to 500 nM | – | 1000 to 10000 nM | 100 to 500 nM

Now from value to compound, other results behind:

Row | IC50 (H2405 cells) | IC50 (Miapaca-2 cells) | IC50 [1] | Compound | IC50 (WM3928 cells)
21 | 100 to 500 nM | 1000 to 10000 nM | 1000 to 10000 nM | Cc1ccc(NC(=O)c2ccnc(C(C)(C)C#N)c2)cc1-c1ccnc(-c2ccnc3c2CC(=O)N3)c1 [Example 23] | ≤ 100 nM
22 | ≤ 100 nM | 1000 to 10000 nM | 1000 to 10000 nM | CNC(=O)c1cc(-c2cc(-c3cc(NC(=O)c4ccnc(C(F)(F)F)c4)ccc3C)cc(C3CC3)n2)ccn1 [Example 27] | ≤ 100 nM
23 | ≤ 100 nM | 1000 to 10000 nM | 1000 to 10000 nM | CC(=O)Nc1cc(-c2cncc(-c3cc(NC(=O)c4ccnc(C(F)(F)F)c4)ccc3C)n2)ccn1 [Example 29] | ≤ 100 nM
24 | ≤ 100 nM | 1000 to 10000 nM | 500 to 1000 nM | CC(=O)Nc1cc(-c2cccc(-c3cc(NC(=O)c4ccnc(C(F)(F)F)c4)ccc3C)c2)ncn1 [Example 30] | ≤ 100 nM
25 | 100 to 500 nM | 1000 to 10000 nM | 1000 to 10000 nM | Cc1ncc(NC(=O)c2cncc(C(F)F)c2)cc1-c1cccc(-c2cc(NC(=O)C3CC3)ncn2)c1 [Example 280] | ≤ 100 nM
26 | ≤ 100 nM | 1000 to 10000 nM | 1000 to 10000 nM | COC(=O)Nc1cc(-c2cc(-c3cc(NC(=O)c4ccnc(C(C)(C)C#N)c4)cnc3C)ccn2)ccn1 [Example 297] | ≤ 100 nM
27 | ≤ 100 nM | 1000 to 10000 nM | 1000 to 10000 nM | Cc1cc(F)c(NC(=O)c2ccnc(C(C)(C)F)c2)cc1-c1ccnc(-c2ccnc(NC(=O)C3CC3)c2)c1 [Example 300] | ≤ 100 nM
28 | ≤ 100 nM | 1000 to 10000 nM | 500 to 1000 nM | Cc1cc(F)c(NC(=O)c2ccnc(C(F)F)c2)cc1-c1ccnc(-c2ccnc(NC(=O)C3CC3)c2)c1 [Example 307] | 100 to 500 nM
29 | ≤ 100 nM | 1000 to 10000 nM | 1000 to 10000 nM | COC(=O)Nc1cc(-c2cc(-c3cc(NC(=O)c4ccnc(C(C)(C)C#N)c4)c(F)cc3C)ccn2)ccn1 [Example 308] | ≤ 100 nM
